{"source": "patent US20250283058A1", "about": "“USE OF p55-GAMMA GENE AND/OR p55-GAMMA PROTEIN AS TARGET IN MAINTAINING CARDIAC IRON HOMEOSTASIS AND TREATING RELATED DISEASE” (BEIJING FRIENDSHIP HOSPITAL, CAPITAL MEDICAL UNIVERSITY, priority 2024, published 2025)", "key": {"[1]": {"system": "I/R injury-induced cardiac ferroptosis", "assay": "I/R injury model in mice with ferroptosis inhibitors (TTC staining, serum LDH, MDA)", "type": "in vivo", "details": "for cardiac MDA content / serum LDH concentration: mice after I/R injury; for cardiac MDA content: compared with WT mice; for serum LDH concentration / I/R-induced myocardial infarct size: effect comparable to p55γ^h-TG mice; for I/R-induced myocardial infarct size: mice, TTC staining", "experimental": "p55γ transgenic (p55γ^h-TG) mice were established according to routine methods in the art. Male wild-type (WT) C57 mice and p55γ^h-TG mice aged 8 to 12 weeks were selected to set up a sham operation control group and experimental groups, respectively, to construct I/R injury models. TTC staining, MDA detection, and oxidized lipid detection were conducted according to conventional methods in the art. To determine whether p55γ protein could inhibit I/R injury-induced cardiac ferroptosis, the experiments were carried out with the following groups: mice treated with saline, mice treated with Ferrostatin-1 (Fer-1) and Dexrazoxane (DXZ), and p55γ^h-TG mice. The cardiac infarction area of mice was detected by conventional TTC staining and the serum LDH concentration was assayed by LDH release kits. […] In addition, lipid peroxidation in the hearts of mice in each group was detected by intracellular MDA content assay. […] Given that the peroxidation of polyunsaturated fatty acids (PUFAs) is an important step in ferroptosis, and in order to further clarify the role of p55γ gene in ferroptosis, oxidized lipid substances in the hearts of mice from the […] group and WT-I/R group were measured using liquid chromatography-tandem mass spectrometry (LC-MS/MS)."}, "[2]": {"system": "IRP2", "assay": "IRP2 mRNA and protein levels in cardiomyocytes (qPCR, Western blot)", "type": "cell-based", "details": "Ad-p55γ-infected cardiomyocytes treated with MG132", "experimental": "To elucidate whether the p55γ gene could regulate the mRNA stability of Tfr1through the IRPs-IRE system, the expression of IRP2 in NRVMs was evaluated. Ad-p55γ was used to infect cardiomyocytes, and qPCR and Western blot were conducted to detect Ad-p55γ-infected cardiomyocytes for 48 h.\nAd-p55γ-infected cardiomyocytes were treated with MG132. […] In order to further study whether p55γ could promote the ubiquitination and degradation of IRP2, the target gene sequences of p55γ, IRP2, and UB were found in NCBI. A pcDNA3.1(+) vector was used, sequence analysis software was used to find the restriction endonuclease cleavage sites present in the target gene sequences, and plasmids for p55γ, IRP2, and […] were constructed. The plasmids were separately transfected into HEK293T cells, which were collected 24 h later and IRP2 ubiquitination was detected. Western blot was conducted to detect the ubiquitination level of IRP2."}, "[3]": {"system": "p55γ gene", "assay": "p55γ gene mRNA and protein levels in cardiomyocytes treated with ferroptosis inducers (qPCR, Western blot)", "type": "cell-based", "details": "NRVMs treated with ferroptosis inducer vs vehicle group", "experimental": "The cultured cardiomyocytes were divided into: an erastin group and a vehicle group, where the NRVMs were treated with erastin in the erastin group, while the cardiomyocytes in the vehicle group were not treated in any way. The mRNA and protein levels of p55γ gene in the two groups of cardiomyocytes were detected by conventional quantitative polymerase chain reaction (qPCR) and Western blot methods.\nThe mRNA and protein levels of p55γ gene in the two groups of cardiomyocytes were detected by conventional qPCR and Western blot methods."}, "[4]": {"system": "cardiomyocytes (NRVMs)", "assay": "H/R injury model in cardiomyocytes with perhexiline", "type": "cell-based", "experimental": "(§1) In view of the importance of p55γ in combating ferroptosis, it is particularly important to find potential activators of p55γ for the treatment of I/R injury. Therefore, potential activators of p55γ were predicted using existing small molecule drug libraries. Subsequently, molecular docking analysis was conducted based on the crystal structure of p55γ. […] To determine the potential role of perhexiline in cardiomyocyte ferroptosis, experiments were first done in cardiomyocytes. […] The effect of perhexiline was further tested in the context of H/R injury model."}, "[5]": {"system": "I/R injury-induced cardiac ferroptosis", "assay": "I/R injury model in mice pretreated with perhexiline (TTC staining, MDA)", "type": "in vivo", "details": "intraperitoneal injection 24 h and 2 h before I/R", "experimental": "p55γ knockout (p55γ^−/−) mice were established according to routine methods in the art. Male wild-type (WT) C57 mice and p55γ^−/− mice aged 8 to 12 weeks were selected to set up a sham operation control group and experimental groups, respectively, and the mice were intraperitoneally injected with perhexiline 24 h and 2 h before constructing the I/R injury model. TTC staining and MDA detection were conducted according to conventional methods in the art."}, "[6]": {"system": "Tfr1 and IRP2", "assay": "Western blot of Tfr1 and IRP2 after perhexiline treatment of cardiomyocytes", "type": "cell-based", "details": "24 h treatment", "experimental": "as §1"}, "[7]": {"details": "cardiomyocytes, H/R injury model"}, "[8]": {"details": "with overexpression of IRP2 (IRP2 adenovirus)"}}, "note": "Where a SMILES comes first, the peptide text is derived from it. The star is where a group is joined. Cbz = O=C(OCc1ccccc1)*", "data": [{"smiles": "C[C@@H](CN1CC(=O)NC(=O)C1)N1CC(=O)NC(=O)C1", "note": "[DXZ, Dexrazoxane]", "values": [{"measurement": "cardiac MDA content", "setting": "[1]", "value": "significantly reduced"}, {"measurement": "serum LDH concentration", "setting": "[1]", "value": "reduced"}, {"measurement": "I/R-induced myocardial infarct size", "setting": "[1]", "value": "reduced"}]}, {"smiles": "CCOC(=O)c1ccc(NC2CCCCC2)c(N)c1", "note": "[Fer-1, Ferrostatin-1]", "values": [{"measurement": "cardiac MDA content", "setting": "[1]", "value": "significantly reduced"}, {"measurement": "serum LDH concentration", "setting": "[1]", "value": "reduced"}, {"measurement": "I/R-induced myocardial infarct size", "setting": "[1]", "value": "reduced"}]}, {"smiles": "CC(C)C[C@@H](C=O)NC(=O)[C@H](CC(C)C)NC(=O)[C@H](CC(C)C)NC(=O)OCc1ccccc1", "note": "[MG132] (Cbz-Leu-Leu-Leu-aldehyde)", "values": [{"measurement": "p55γ-mediated decrease in IRP2 protein", "setting": "[2]", "value": "effectively eliminated"}]}, {"smiles": "COC(=O)c1ccc([C@@H]2c3[nH]c4ccccc4c3C[C@@H](C(=O)OC)N2C(=O)CCl)cc1", "note": "[RSL3]", "values": [{"measurement": "protein level of p55γ gene", "setting": "[3]; Western blot", "value": "down-regulated"}, {"measurement": "mRNA level of p55γ gene", "setting": "[3]; qPCR", "value": "down-regulated"}]}, {"smiles": "C1CCC(C(CC2CCCCN2)C2CCCCC2)CC1", "note": "(stereo not shown) [perhexiline]", "values": [{"measurement": "decrease in cell activity induced by H/R injury", "setting": "[4]; [7]", "value": "significantly blocked"}, {"measurement": "increase in ptgs2 mRNA levels induced by H/R injury", "setting": "[4]; [7]", "value": "significantly blocked"}, {"measurement": "inhibitory effect on H/R induced decrease in cell activity", "setting": "[4]; [8]", "value": "could block the inhibitory effect"}, {"measurement": "inhibitory effect on H/R induced increase in ptgs2 mRNA levels", "setting": "[4]; [8]", "value": "could block the inhibitory effect"}, {"measurement": "level of MDA in the heart", "setting": "[5]; WT mice", "value": "reduce"}, {"measurement": "myocardial infarct size", "setting": "[5]; WT mice, TTC staining", "value": "significantly reduce"}, {"measurement": "cardioprotective effect (level of MDA in the heart)", "setting": "[5]; p55γ^−/− mice", "value": "abolished"}, {"measurement": "cardioprotective effect (myocardial infarct size)", "setting": "[5]; p55γ^−/− mice", "value": "abolished"}, {"measurement": "protein level of IRP2", "setting": "[6]", "value": "significantly down-regulated"}, {"measurement": "protein level of Tfr1", "setting": "[6]", "value": "significantly down-regulated"}]}]}
